Earlier results, collected in publication PMC11547388, “Toxicokinetics and Tissue Distribution of the Hepatotoxic Triterpenoid Saponin Pterocephin A in Rats Using the Ultra-Performance Liquid Chromatography–Tandem Mass Spectrometry (UPLC-MS/MS) Method” (Molecules, 2024).

Set-up: method as in PMID 37253396
Conditions: in vivo, HPLC-QQQ-MS/MS

For `C=C(C)[C@@H]1CC[C@]2(C(=O)O[C@@H]3O[C@H](CO[C@@H]4O[C@H](CO)[C@@H](O[C@@H]5O[C@@H](C)[C@H](O)[C@@H](O)[C@H]5O)[C@H](O)[C@H]4O)[C@@H](O)[C@H](O)[C@H]3O)CC[C@]3(C)[C@H](CC[C@@H]4[C@@]5(C)CC[C@H](O[C@@H]6OC[C@H](O)[C@H](O)[C@H]6O[C@@H]6O[C@@H](C)[C@H](O)[C@@H](O)[C@H]6O)[C@@](C)(CO)[C@@H]5CC[C@]43C)[C@@H]12` [AB4, anemoside B4], the bioavailability is listed as “less than 1%”.
